# Results published in patent US20020115663A1, “Novel compounds” (priority 2000, published 2002).
# Biological target: Human PTP1B (Homo sapiens, UniProt P18031)
# Settings: 2 mM, control wells
# Description: Human PTP1B (amino acid residues 1-298, cloned from a human placental library), without the GST tag and thrombin cleavage site, was inserted into a pMB replicon and transformed into E. coli BL21 (DE3), a strain containing a chromosomal copy of the gene for T7 RNA polymerase under control of a lacUV5 promoter. Expression of PTP1B was induced with isopropyl thiogalactose and cells were lysed in lysis buffer comprising 50 mM Tris-HCl pH 7.5, 10% glycerol, 1 mM EDTA, 3 mM DTT, 3 mM MgCl2, and 0.2 mg/ml lysozyme with 1 mg/ml DNAse I. The soluble protein was purified by ion exchange, hydrophobic interaction and gel exclusion chromatography for use in assays to identify PTP1B inhibitors. […] Recombinant proteins were stored at −70° C. until used.
# Human PTP1B activity was measured using p-nitrophenol phosphate (pNPP) as substrate in a 96-well microtiter plate format. An assay pH of 7.2 is used for standard assays (measured extinction coefficient =9800 at pH 7.2).
# Standard assays were conducted at room temperature in a total volume of 0.2 ml that contains Hepes buffer (50 mM, pH 7.2), NaCl (50 mM), EDTA (1 mM), DTT (1 mM), bovine serum albumin (1 mg/ml), pNPP (1.25 mM) and PTP1B (500 ng/ml, 13.5 nM). […] The OD^405 was subsequently measured. […]
# Sequence of Human PTP1B (P18031 1-298): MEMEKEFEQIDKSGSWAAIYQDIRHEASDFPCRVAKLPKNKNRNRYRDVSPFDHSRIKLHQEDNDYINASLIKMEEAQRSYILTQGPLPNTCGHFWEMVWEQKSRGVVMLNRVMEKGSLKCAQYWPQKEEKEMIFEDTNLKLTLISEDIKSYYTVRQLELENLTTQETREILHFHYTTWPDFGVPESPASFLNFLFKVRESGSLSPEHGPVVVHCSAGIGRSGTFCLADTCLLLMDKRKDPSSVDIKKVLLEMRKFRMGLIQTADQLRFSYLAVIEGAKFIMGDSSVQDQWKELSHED
compound,measurement,value
[Na+].[Na+].[Na+].[O]=[V]([O-])([O-])[O-] [sodium orthovanadate],inhibition of PTP1B-catalyzed hydrolysis of pNPP,completely
